Measurements from publication PMC7613515, “Reading and erasing of the phosphonium analogue of trimethyllysine by epigenetic proteins” (Communications Chemistry, 2022).

Molecular target: T1, KDM4EJmjC (M1–Q337) (Homo sapiens, UniProt B2RXH2)
T1 construct: We chose human KDM4EJmjC (M1–Q337); made in house
T1 sequence (B2RXH2 1-337): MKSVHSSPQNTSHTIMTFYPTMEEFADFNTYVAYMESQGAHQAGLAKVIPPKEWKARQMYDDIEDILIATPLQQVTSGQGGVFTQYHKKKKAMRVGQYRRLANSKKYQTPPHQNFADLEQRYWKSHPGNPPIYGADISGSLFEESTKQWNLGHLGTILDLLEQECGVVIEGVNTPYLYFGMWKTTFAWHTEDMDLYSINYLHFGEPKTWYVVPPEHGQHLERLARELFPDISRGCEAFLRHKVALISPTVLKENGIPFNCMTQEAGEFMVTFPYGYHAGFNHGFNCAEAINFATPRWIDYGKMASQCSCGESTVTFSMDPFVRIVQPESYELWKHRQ
Test: MALDI-TOF demethylation assay, KDM4EJmjC
Type: biochemical
Protocol: Reactions were monitored using MALDI-TOF mass spectrometry (Fig. 5b–d).
A Bruker Daltonics MALDI-TOF/TOF AutoflexSpeed machine and Bruker MTP 384 target plates (polished steel BC, Part: 8280781) were used. The machine was controlled using Flex control (v. 3.4 build 135.10) and Compass for flex series (v. 1.4) software. Measurements were in the positive ion mode with the reflectron mode enabled. Incubations employed ProxiPlate-384™ (Perkin Elmer) plates into which was pipetted a solution of [H3_1-15K9me3 (10.0 µM), (+)-sodium L-ascorbate (1.0 mM), (NH4)2Fe(II)(SO4)2 (100 µM), di-sodium 2-oxoglutarate (200 µM) in buffer (HEPES (50 mM)) in MilliQ (pH 7.5)] (5.0 µL) using ClipTip™ (Thermo Scientific™) pipette tips and E1-ClipTip™ (Thermo Scientific™). The enzyme solution [KDM4EJmjC (1.0 µM) in HEPES (50 mM)] (5.0 µL) was added to initiate reaction at 37 °C. Reactions were quenched with formic acid in water (2%, 5.0 µL). Samples were then spotted onto a MALDI-TOF target plate (1.0 µL), MALDI matrix [sat. sol. α-cyano-4-hydroxy-cinnamic acid (10 mg·mL^−1) in {trifluoro acetic acid, acetonitrile and MilliQ (0.1:50:50)}] (1.0 µL) was added, mixed, and dried in air. Samples were then analysed by MALDI-TOF. Specific experiments were supplemented with catalase from bovine liver (C3155-50MG, Merck) (5.0 µM), bovine albumin serum (BSA, Perkin Elmer, CR84-100, DTPA purified 7.5%) (5.0 µM), or Tris(carboxyethyl)phosphine hydrochloride salt (TCEP, M02624, Fluorochem) (500 µM).

ARTKQTAR(KPme3)STGGKA [H3KP9me3, histone H3 residues 1–15 with trimethylphosphonium lysine analogue at position 9]
demethylation in competition assay (H3K9me3 (5.0 µM) and H3KP9me3 (5.0 µM) in the same vessel, KDM4EJmjC 0.5 µM): no evidence that H3KP9me3 was converted to H3KP9me2 or H3KP9me2O
relative substrate quality / rate (H3K9me3 versus H3KP9me3): demethylation rate is significantly slower for H3KP9me3 than for H3K9me3
demethylation in omission controls (H3KP9me3: without KDM4EJmjC, Asc, Fe(II) or 2OG, H3K9me3: without Asc and Fe(II), 1 hr): little or no H3KP9me2 or H3KP9me2O formation
demethylation (KDM4EJmjC 0.5 µM (H3KP9me3 also at 5.0 µM enzyme), peptide 5.0 or 6.0 µM, Asc 500 µM, Fe(II) 50 µM, 2OG 100 µM): only undergo a single demethylation (−14 Da) to give H3KP9me2
effect of catalase with or without Asc or BSA (KDM4EJmjC 0.5 µM, catalase 5.0 µM, BSA 5.0 µM): did not substantially alter the amounts of H3KP9me2 or H3KP9me2O
yield with TCEP rather than Asc (TCEP as a reducing agent, KDM4EJmjC 0.5 µM): slightly increased yields of H3KP9me2 and H3KP9me2O
product formation (stoichiometric: KDM4EJmjC 5.0 µM, peptide 5.0 µM): faster H3KP9me2 and H3KP9me2O product formation, but no evidence for H3KP9me1 or H3KP9 formation
